This note sets out measurements from paper PMC9545474, “Anticancer Water‐Soluble Organoruthenium Complexes: Synthesis and Preclinical Evaluation” (Chembiochem, 2022).

The IC50 is the concentration that gives 50% inhibition.

For series [1], the system named is A2780cisR cisplatin-resistant ovarian cancer cells. The experiment in a line: 24-hour MTT chemosensitivity assay with 72-hour recovery, A2780cisR. The format is cell-based, human. To be noted: for IC50: read-out: IC50 values ±SD, A2780cisR; for Selectivity index (SI), A2780cisR: mean IC50 PNT2 / mean IC50 A2780cisR. The protocol: (§1) Chemosensitivity studies were undertaken using a 24‐hour MTT assay, with a 72‐hour recovery period. The IC50 values were determined against ovarian A2780 (cisplatin‐sensitive) and A2780cisR (cisplatin‐resistant) cancer cell lines, non‐small‐cell lung H460 cancer cell line, and normal prostate PNT2 cell line, exposed to each of compounds 4–8, cisplatin or the phosphine ligands (Table 1 and S4, Figures S29–S31). […] This is unusual but can be related to solubility issues not visible for the naked eye and thus hindering its activity in cells. […] When tested on their own, the phosphine ligands are not active below 100 μM for all four cell lines. […] This therefore prevents comparison with the well‐known RAPTA family, and more especially with RAPTA−C which bears a PTA ligand and a p‐cym ligand, making this complex relatively similar in terms of geometry with complex 4.[21] […] This confirms the interest of the sulfur coordinating atom in terms of cytotoxicity for organoruthenium complexes.[23]
(§2) Chemosensitivity assay: In vitro chemosensitivity tests were performed against A2780, A2780cisR, PNT2 and H460 cells. Cells were routinely maintained as monolayer cultures in RPMI 1640 medium supplemented with 10 % foetal calf serum, penicillin (100 I.U./mL) and streptomycin (100 μg/mL), sodium pyruvate (1 mM) and L‐glutamine (2 mM). For chemosensitivity studies, cells were seeded in 96‐well plates at a concentration of 7.5×10^3 cells per well and the plates were incubated for 24 h at 37 °C and a 5 % CO2 humidified atmosphere prior to drug exposure.
(§3) Complexes were dissolved in either DMSO (complexes 4, 5, and 8) or PBS (complexes 6 and 7) to provide stock solutions which were further diluted with media to provide a range of final concentrations. Drug‐media solutions were added to cells (the final concentration of DMSO was less than 1 % (v/v) in all cases) and incubated for 24 h at 37 °C and a 5 % CO2 humidified atmosphere. The drug‐media solution was removed from the wells and the cells were washed with PBS (100 μL, twice) and 200 μL of complete fresh media were added to each well. The plates were further incubated for 72 h at 37 °C and a 5 % CO2 humidified atmosphere to allow for a period of recovery. 3‐(4,5‐dimethylthiazol‐2‐yl)‐2,5‐diphenyltetrazolium bromide (MTT) (40 μL, 2.5 mg/mL) was added to each well and plates were incubated for 2 h. All solutions were then removed and 100 μL of DMSO was added to each well in order to dissolve the purple formazan crystals. A Thermo Scientific Multiskan EX microplate photometer was used to measure the absorbance in each well at 570 nm. Cell survival was determined as the absorbance of treated cells divided by the absorbance of controls and expressed as a percentage. The IC50 values were determined from plots of % survival against drug concentration. Each experiment was repeated in triplicates of triplicates and a mean value was obtained and stated as IC50 (μM) ± SD. Untreated cells were used as a negative control, and cells treated with cisplatin were used as a positive control.
Background: Tetrazolium assays rely on reduction of a dye to a coloured formazan, in cell work by metabolically active cells.

Series [2] relates to H460 non-small-cell lung cancer cells. Put plainly: 24-hour MTT chemosensitivity assay with 72-hour recovery, H460. Format: cell-based. The protocol: as §1, §2, §3
Series [3] relates to PNT2 non-cancerous human prostate cells. Put plainly: 24-hour MTT chemosensitivity assay with 72-hour recovery, PNT2. The format is cell-based. The protocol: as §1, §2, §3
Series [4] deals with A2780 ovarian cancer cells. The experiment in a line: 24-hour MTT chemosensitivity assay with 72-hour recovery, A2780. The format is cell-based, human. To be noted: for Selectivity index (SI), A2780: mean IC50 PNT2 / mean IC50 A2780. The protocol:
as §1, §2, §3

The subject of the next series is A2780 cells. Put plainly: FITC annexin-V / PI apoptosis assay by flow cytometry. The format is cell-based, human. To be noted: A2780, 24 h, complexes 2×IC50, doxorubicin 0.5 µM; for viability at 0.5 µM: Homo sapiens. An excerpt: Annexin V‐FITC and propidium iodide (PI) have been used to distinguish between viable cells (Q1‐LL), early apoptotic cells (Q1‐LR), late apoptotic cells (Q1‐UR), and necrotic cells (Q1‐UL). […] Both complexes 6 and 8 induce apoptosis of A2780 cells and treatment with the complexes results in 99.6 % and 95.4 % of the cells in late apoptosis, respectively.
Figure 9 Flow cytometry analysis of A2780 cells exposed to complexes 6 or 8 at twice the IC50 concentration compared to a negative control. FITC reads annexin fluorescence and PE reads propidium iodide. Abbreviations: Q1‐UL=non‐viable cells; Q1‐UR=late‐stage apoptotic cells; Q1‐LR=early‐stage apoptotic cells and Q1‐LL=healthy cells.
FITC annexin‐V apoptosis assay: Flow cytometry analysis of apoptotic populations was carried out using the FITC Annexin V Apoptosis Detection Kit with PI (BioLegend®) according to manufacturer's instructions. Briefly, A2780 cells were seeded in 6‐well plates at a concentration of 1.0×10^6 cells per well and the plates were incubated for 24 h at 37 °C and a 5 % CO2 humidified atmosphere. […] Cells were then harvested using trypsin (without EDTA) and stained with PI/Annexin V‐FITC. After staining in the dark for 15 min at room temperature, cell pellets were analysed in a BD Accuri C6 Plus System flow cytometer and data was analysed using the BD Accuri C6 Plus software. These experiments were carried out in duplicate of triplicates in independent experiments; although only selected dot plots are shown, full numerical data and statistical analysis can be found in the Supporting Information.

[5] abbreviates: Homo sapiens, NCI-H460, read-out: IC50 values ±SD, H460.
[6] abbreviates: Homo sapiens, PNT2, read-out: IC50 values ±SD, PNT2.
Setting [7] is: Homo sapiens, A2780, read-out: IC50 values ±SD, A2780.
Setting [8] is: 24 h exposure, 72 h recovery, MTT.
Setting [9] is: 24 h exposure, 72 h recovery, MTT, read-out: IC50 values ±SD, H460.
Where [10] appears, read: 24 h exposure, 72 h recovery, MTT, read-out: IC50 values ±SD, PNT2.
Setting [11] is: 24 h exposure, 72 h recovery, MTT, read-out: IC50 values ±SD, A2780.
Where [12] appears, read: Combined results, Average of two experiments.

Structures can show the parent of a compound that is named as a salt. Where two headings read alike, the source gives them in different places. Where only a bound is given, the exact number is not on record here.

Take `CC(=O)N1CN2CN(C(C)=O)CP(C2)C1` [DAPTA, 3,7‐diacetyl‐1,3,7‐triaza‐5‐phosphabicyclo[3.3.1]nonane]: the half-inhibitory concentration (IC50) in series [1] (Homo sapiens, A2780cisR) is not below 100 µM; in series [2] (setting [5]) it was not below 100 µM; in series [3] (setting [6]) it was not below 100 µM; in series [4] (setting [7]), not below 100 µM.
On to `Cc1ccc(C(C)C)cc1.N#CC1=C(C#N)[S][Ru-]([P+](c2ccc(C(F)(F)F)cc2)(c2cccc(S(=O)(=O)[O-])c2)c2cccc(S(=O)(=O)[O-])c2)[S]1.[Na+].[Na+]` [Complex 7, (η^6‐p‐cymene)(p‐DANPHOS)Ru(Mnt)], for which the IC50 in series [1] (setting [8]) stood at 2.3 ± 0.7 µM; in series [2] (setting [9]) it was 2.3 ± 0.3 µM; in series [3] (setting [10]), 2.2 ± 0.1 µM; in series [4] (setting [11]) it was 2.8 ± 0.8 µM. Besides, the “Selectivity index (SI), A2780cisR” value in series [1] is recorded as 0.96. The “Selectivity index (SI), H460” value in series [2] (mean IC50 PNT2 / mean IC50 H460) was determined as 0.96. Further, the “Selectivity index (SI), A2780” value in series [4] is recorded as 0.79.
For the molecule `O=S(=O)(O)c1cccc(P(c2cccc(S(=O)(=O)O)c2)c2cccc(S(=O)(=O)O)c2)c1` [TPPTS, triphenylphosphine‐3,3′,3′′‐trisulfonic acid trisodium salt], the IC50 in series [1] (setting [8]), in series [2] (setting [9]), in series [3] (setting [10]) and in series [4] (setting [11]) was not below 100 µM throughout.
As to “(η^6‐p‐cymene)(DAPTA)Ru(Mnt) [Complex 5]”, the IC50 in series [1] (setting [8]) was 72 ± 6 µM; in series [2] (setting [9]), not below 100 µM; in series [3] (setting [10]), 33 ± 1.4 µM; in series [4] (setting [11]) it was 14 ± 2 µM. The “Selectivity factor (cross-resistance, resistance factor RF)” value in series [1] (IC50 A2780cisR / IC50 A2780) is 5.1. Further, the “Selectivity index (SI), A2780cisR” value in series [1] was determined as 0.49. The “Selectivity index (SI), A2780” value in series [4] was 2.36.
In the case of `O=S(=O)(O)c1cccc(P(c2ccc(C(F)(F)F)cc2)c2cccc(S(=O)(=O)O)c2)c1` [p-DANPHOS, bis(3‐sulfonatophenyl)(4‐trifluoromethylphenyl)phosphine disodium dihydrate], the IC50 was not below 100 µM in series [1] (Homo sapiens, A2780cisR); not below 100 µM in series [2] (setting [5]); not below 100 µM in series [3] (setting [6]); not below 100 µM in series [4] (setting [7]).
On to `C1N2CN3CN1CP(C2)C3` [PTA, 1,3,5‐triaza‐7‐phosphaadamantane], for which the IC50 in series [1] (Homo sapiens, A2780cisR) was not below 100 µM; in series [2] (setting [5]), not below 100 µM; in series [3] (setting [6]), not below 100 µM; in series [4] (setting [7]), not below 100 µM.
For `COc1cccc2c1C(=O)c1c(O)c3c(c(O)c1C2=O)C[C@@](O)(C(=O)CO)C[C@@H]3O[C@H]1C[C@H](N)[C@H](O)[C@H](C)O1` [Doxorubicin, doxorubicin, reference compound], the “Early apoptosis (Q1-LR)” value in the series with A2780 cells (setting [12]) came out at 0.0%; in the series on A2780 cells (Experiment 1, Average), 0.0%; in the series on A2780 cells (Experiment 1, Rep 1), 0.0%; in the series on A2780 cells (Experiment 1, Rep 2) it was 0.0%; in the series on A2780 cells (Experiment 1, Rep 3) it was 0.0%; in the series on A2780 cells (Experiment 2, Average) it was 0.0%. For the same molecule, the “Early apoptosis (Q1-LR)” value came to 0.0% in the series on A2780 cells (Experiment 2, Rep 1); 0.0% in the series with A2780 cells (Experiment 2, Rep 2); 0.0% with A2780 cells (Experiment 2, Rep 3). Further, the “Late apoptosis (Q1-UR)” value in the series on A2780 cells (setting [12]) was determined as 99.9%; in the series on A2780 cells (Experiment 1, Average), 99.9%; in the series on A2780 cells (Experiment 1, Rep 1), 99.8%; in the series with A2780 cells (Experiment 1, Rep 2) it was 99.9%; in the series on A2780 cells (Experiment 1, Rep 3), 100.0%; in the series on A2780 cells (Experiment 2, Average), 99.9%. The “Late apoptosis (Q1-UR)” value in the series on A2780 cells (Experiment 2, Rep 1) amounted to 99.9%; with A2780 cells (Experiment 2, Rep 2) it was 99.9%; in the series with A2780 cells (Experiment 2, Rep 3), 100.0%. Besides, the “Necrosis (Q1-UL)” value in the series with A2780 cells (setting [12]) is given as 0.1%; with A2780 cells (Experiment 1, Average), 0.1%; with A2780 cells (Experiment 1, Rep 1) it was 0.2%; with A2780 cells (Experiment 1, Rep 2), 0.1%; with A2780 cells (Experiment 1, Rep 3), 0.0%; with A2780 cells (Experiment 2, Average), 0.0%. Besides, the “Necrosis (Q1-UL)” value came out at 0.0% with A2780 cells (Experiment 2, Rep 1); 0.1% in the series on A2780 cells (Experiment 2, Rep 2); 0.0% with A2780 cells (Experiment 2, Rep 3). The “Viable cells (Q1-LL)” value is given as 0.0% with A2780 cells (Experiment 1, Average) and 0.0% with A2780 cells (Experiment 2, Average). Moreover, the viability at 0.5 µM in the series on A2780 cells (Combined results, Average of two experiments, read-out: Viable cells (Q1-LL)) was 0%; with A2780 cells (Experiment 1, Average, read-out: Viable cells (Q1-LL)), 0%; in the series on A2780 cells (Experiment 1, Rep 1, read-out: Viable cells (Q1-LL)), 0%; in the series on A2780 cells (Experiment 1, Rep 2, read-out: Viable cells (Q1-LL)), 0%; with A2780 cells (Experiment 1, Rep 3, read-out: Viable cells (Q1-LL)), 0%; in the series with A2780 cells (Experiment 2, Average, read-out: Viable cells (Q1-LL)), 0%. The viability at 0.5 µM with A2780 cells (Experiment 2, Rep 1, read-out: Viable cells (Q1-LL)) was 0%; with A2780 cells (Experiment 2, Rep 2, read-out: Viable cells (Q1-LL)) it was 0.1%; with A2780 cells (Experiment 2, Rep 3, read-out: Viable cells (Q1-LL)) it was 0%.
